The values below come from patent US20130165446A1 (priority 2010, published 2013).

The structures appear in SMILES notation.

For this test, the target named is T1, human recombinant (CHO cell) AT1 receptor (Homo sapiens, UniProt P30556).
T1 construct: expressed in transfected cells; host or cells: CHO cells
T1 sequence (P30556 1-359): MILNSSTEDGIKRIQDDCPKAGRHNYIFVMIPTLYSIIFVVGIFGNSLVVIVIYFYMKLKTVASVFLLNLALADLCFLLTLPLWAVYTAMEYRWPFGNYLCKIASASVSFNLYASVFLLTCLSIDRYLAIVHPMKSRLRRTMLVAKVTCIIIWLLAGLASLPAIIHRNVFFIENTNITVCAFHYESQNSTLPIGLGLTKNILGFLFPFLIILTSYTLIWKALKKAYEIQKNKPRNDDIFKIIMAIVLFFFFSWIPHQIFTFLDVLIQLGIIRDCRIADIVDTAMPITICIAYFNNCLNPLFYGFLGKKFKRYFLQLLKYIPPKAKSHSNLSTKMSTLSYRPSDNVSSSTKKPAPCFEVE
The test can be described thus: Angiotensin II inhibition test (radioligand binding to AT1 receptor). The conditions noted are these: test compound concentration 10^−9 M, radioactive iodine-labeled angiotensin II, 37° C., sixty minutes; for inhibition at 0.001 µM: read-out: Inhibition rate (%). On the procedure: A test of inhibition of angiotensin II to human recombinant (CHO cell) AT1 receptor following a method described in the literature (for example, Regul. Pept., vol. 44 (2), page 131 (1993)) was used to measure inhibitory activity to a test compound.
The ligand used was 10^−9 M of a test compound dissolved in 1% DMSO (dimethylsulfoxide). This was reacted with radioactive iodine-labeled angiotensin II at 37° C. for sixty minutes. Taking the inhibition rate of angiotensin II at 10 μM as nonspecific binding, the specific binding rate was calculated by subtracting this nonspecific portion. Table 6 indicates the results (the inhibition rate at test compound concentration: 10^−9 M)

The inhibition is the share of the control response that was lost under treatment. With `CCCc1nc2c(C)cc(C(=O)NCc3ccc(Oc4ccc5nc(COc6ccc(CC7SC(=O)NC7=O)cc6)n(C)c5c4)cc3)cc2n1Cc1ccc(-c2ccccc2-c2nnn[nH]2)cc1` (centres unmarked) [Example 28, 5-[4-[6-{4-(4-methyl-2-propyl-1-[2′-(1H-tetrazol-5-yl)biphenyl-4-ylmethyl]-1H-benzimidazol-6-ylcarbonylaminomethyl)phenoxy}-1-methyl-1H-benzimidazol-2-ylmethoxy]benzyl]thiazolidin-2,4-dione], the inhibition at 0.001 µM is 66%.
As to `CCCc1nc2c(C)cc(-c3nc4ccc(N(C)CCOc5ccc6nc(COc7ccc(CC8SC(=O)NC8=O)cc7)n(C)c6c5)cc4n3C)cc2n1Cc1ccc(-c2ccccc2-c2nnn[nH]2)cc1` (centres unmarked) [Example 3, 5-[4-[6-{2-(N-(1-methyl-2-[4-methyl-2-propyl-1-(2′-(1H-tetrazol-5-yl)biphenyl-4-ylmethyl)-1H-benzimidazol-6-yl]-1H-benzamidazol-6-yl)-N-methylamino)ethoxy}-1-methyl-1H-benzimidazol-2-ylmethoxy]benzyl]thiazolidine-2,4-dione], the “Inhibition rate (%)” value came out at 60%.
With `CCCc1nc2c(C)cc(CN(C)c3ccc4nc(COc5ccc(CC6SC(=O)NC6=O)cc5)n(C)c4n3)cc2n1Cc1ccc(-c2ccccc2C(=O)O)cc1` (centres unmarked) [Example 10, 4′-[6-(N-{2-[4-(2,4-dioxothiazolidin-5-ylmethyl)phenoxymethyl]-3-methyl-3H-imidazo[4,5-b]pyridin-5-yl}-N-methylaminomethyl)-4-methyl-2-propyl-1H-benzimidazol-1-ylmethyl]biphenyl-2-carboxylic acid], the inhibition at 0.001 µM came out at 41%.
As to `CCCc1nc(CSc2ccc3nc(COc4ccc(CC(OCc5ccc(Cl)cc5)C(=O)O)cc4)n(C)c3c2)c(C(=O)OCC)n1Cc1ccc(-c2ccccc2-c2nnn[nH]2)cc1` (centres unmarked) [Example 35, 3-[4-[6-(5-ethoxycarbonyl-1-{2′-(1H-tetrazol-5-yl)biphenyl-4-ylmethyl}-2-propyl-1H-imidazol-4-ylmethylthio)-1-methyl-1H-benzimidazol-2-ylmethoxy]phenyl]-2-(4-chlorobenzyloxy)propionic acid], the inhibition at 0.001 µM was 90%.
Consider `CCCc1nc(CSCCOc2ccc3nc(COc4ccc(CC5SC(=O)NC5=O)cc4)n(C)c3c2)c(C(=O)OCC)n1Cc1ccc(-c2ccccc2-c2nnn[nH]2)cc1` (centres unmarked) [Example 15, 4-[2-[1-methyl-2-{4-(2,4-dioxothiazolidin-5-ylmethyl)phenoxymethyl}-1H-benzimidazol-6-yloxy]ethylthiomethyl]-2-propyl-1-[2′-(1H-tetrazol-5-yl)biphenyl-4-ylmethyl]-1H-imidazole-5-carboxylic acid ethyl ester], for which the inhibition at 0.001 µM is 47%.
Regarding `CCCc1nc2c(C)cc(COc3ccc4nc(COc5ccc(CC6SC(=O)NC6=O)cc5)n(C)c4c3)cc2n1Cc1ccc(-c2ccccc2-c2nnn[nH]2)cc1` (centres unmarked) [Example 1, 5-(4-{6-[4-methyl-2-propyl-1-[2′-(1H-tetrazol-5-yl)biphenyl-4-ylmethyl]-1H-benzimidazol-6-ylmethoxy]-1-methyl-1H-benzimidazol-2-ylmethoxy}benzyl)thiazolidine-2,4-dione], the inhibition at 0.001 µM came to 51%.
Same read-out and setting: under `CCCc1nc(CS(=O)(=O)c2ccc(Oc3ccc4nc(COc5ccc(CC6SC(=O)NC6=O)cc5)n(C)c4c3)cc2)c(C(=O)OCC)n1Cc1ccc(-c2ccccc2-c2nnn[nH]2)cc1` (centres unmarked) [Example 26, 4-[4-{2-[4-(2,4-dioxothiazolidin-5-ylmethyl)phenoxymethyl]-1-methyl-1H-benzimidazol-6-yloxy}phenylsulfonylmethyl]-2-propyl-1-[2′-(1H-tetrazol-5-yl)biphenyl-4-ylmethyl]-1H-imidazole-5-carboxylic acid ethyl ester] stands 44%.
On to `CCCc1nc(CSc2ccc(Oc3ccc4nc(COc5ccc(CC6SC(=O)NC6=O)cc5)n(C)c4c3)cc2)c(C(=O)NC)n1Cc1ccc(-c2ccccc2-c2nnn[nH]2)cc1` (centres unmarked) [Example 27, N-methyl-(4-[4-{2-[4-(2,4-dioxothiazolidyn-5-ylmethyl)phenoxymethyl]-1-methyl-1H-benzimidazol-6-yloxy}phenylthiomethyl]-2-propyl-1-[2′-(1H-tetrazol-5-yl)biphenyl-4-ylmethyl]-1H-imidazole)-5-carboxamide], for which the “Inhibition rate (%)” value turned out to be 66%.
On to `CCCc1nc(C[S+]([O-])c2ccc(Oc3ccc4nc(COc5ccc(CC6SC(=O)NC6=O)cc5)n(C)c4c3)cc2)c(C(=O)OCC)n1Cc1ccc(-c2ccccc2-c2nnn[nH]2)cc1` (centres unmarked) [Example 25, 4-[4-{2-[4-(2,4-dioxothiazolidin-5-ylmethyl)phenoxymethyl]-1-methyl-1H-benzimidazol-6-yloxy}phenylsulfinylmethyl]-2-propyl-1-[2′-(1H-tetrazol-5-yl)biphenyl-4-ylmethyl]-1H-imidazole-5-carboxylic acid ethyl ester], for which the inhibition at 0.001 µM is 32%.
Take `CCCc1nc(CSCCNC(=O)CSc2ccc3nc(COc4ccc(CC5SC(=O)NC5=O)cc4)n(C)c3c2)c(C(=O)OCC)n1Cc1ccc(-c2ccccc2-c2nnn[nH]2)cc1` (centres unmarked) [Example 19]: the “Inhibition rate (%)” value came out at 65%.
With `CCCc1nc(CSc2ccc3nc(COc4ccc(CC5SC(=O)NC5=O)cc4)n(C)c3c2)c(C(=O)OCC)n1Cc1ccc(-c2ccccc2-c2nnn[nH]2)cc1` (centres unmarked) [Example 33, 4-{2-[4-(2,4-dioxothiazolidin-5-ylmethyl)phenoxymethyl]-1-methyl-1H-benzimidazol-6-ylthiomethyl}-2-propyl-1-[2′-(1H-tetrazol-5-yl)biphenyl-4-ylmethyl]-1H-imidazole-5-carboxylic acid ethyl ester], the inhibition at 0.001 µM turned out to be 87%.
For the molecule `CCCc1nc(CSc2ccc(Oc3ccc4nc(COc5ccc(CC6SC(=O)NC6=O)cc5)n(C)c4c3)cc2)c(C(=O)OC)n1Cc1ccc(-c2ccccc2-c2nnn[nH]2)cc1` (centres unmarked) [Example 30, 4-[4-{2-[4-(2,4-dioxothiazolidin-5-ylmethyl)phenoxymethyl]-1-methyl-1H-benzimidazol-6-yloxy}phenylthiomethyl]-2-propyl-1-[2′-(1H-tetrazol-5-yl)biphenyl-4-ylmethyl]-1H-imidazole-5-carboxylic acid methyl ester], the inhibition at 0.001 µM is 66%.
The same measure, in the same setting: next, `CCCc1nc(COc2ccc3nc(COc4ccc(CC5SC(=O)NC5=O)cc4)n(C)c3c2)c(C(=O)OCC)n1Cc1ccc(-c2ccccc2-c2nnn[nH]2)cc1` (centres unmarked) [Example 7, 4-{2-[4-(2,4-dioxothiazolidin-5-ylmethyl)phenoxymethyl]-1-methyl-1H-benzimidazol-6-yloxymethyl}-2-propyl-1-[2′-(1H-tetrazol-5-yl)biphenyl-4-ylmethyl]-1H-imidazole-5-carboxylic acid ethyl ester]: 52%.
On to `CCCc1nc(COc2ccc(Sc3ccc4nc(COc5ccc(CC6SC(=O)NC6=O)cc5)n(C)c4c3)cc2)c(C(=O)OCC)n1Cc1ccc(-c2ccccc2-c2nnn[nH]2)cc1` (centres unmarked) [Example 29, 4-[4-{2-[4-(2,4-dixothiazolidin-5-ylmethyl)phenoxymethyl]-1-methyl-1H-benzimidazol-6-ylthio}phenoxymethyl]-2-propyl-1-[2′-(1H-tetrazol-5-yl)biphenyl-4-ylmethyl]-1H-imidazole-5-carboxylic acid ethyl ester], for which the “Inhibition rate (%)” value is 40%.
With `CCCc1nc2c(C)cc(-c3nc4ccc(N(C)CCOc5ccc(CC6SC(=O)NC6=O)cc5)cc4n3C)cc2n1Cc1ccc(-c2ccccc2C(=O)O)cc1` (centres unmarked) [Example 22, 4′-[6-{6-(N-2-[4-(2,4-dioxothiazolidin-5-ylmethyl)phenoxy]ethyl-N-methylamino)-1-methyl-1H-benzimidazol-2-yl}-4-methyl-2-propyl-1H-benzimidazol-1-ylmethyl]biphenyl-2-carboxylic acid], the inhibition at 0.001 µM was found to be 60%.
On the same count and under the same terms, next, `CCCc1nc(CSCCSc2ccc(Oc3ccc4nc(COc5ccc(CC6SC(=O)NC6=O)cc5)n(C)c4c3)cc2)c(C(=O)OCC)n1Cc1ccc(-c2ccccc2-c2nnn[nH]2)cc1` (centres unmarked) [Example 14, 4-[2-[4-{1-methyl-2-(4-(2,4-dioxothiazolidin-5-ylmethyl)phenoxymethyl)-1H-benzimidazol-6-yloxy}phenylthio]ethylthiomethyl]-2-propyl-1-[2′-(1H-tetrazol-5-yl)biphenyl-4-ylmethyl]-1H-imidazole-5-carboxylic acid ethyl ester]: 38%; `CCCc1nc(CNc2ccc(Oc3ccc4nc(COc5ccc(CC6SC(=O)NC6=O)cc5)n(C)c4c3)cc2)c(C(=O)OCC)n1Cc1ccc(-c2ccccc2-c2nnn[nH]2)cc1` (centres unmarked) [Example 31, 4-{N-[4-[2-(4-[2,4-dioxothiazolidin-5-ylmethyl]phenoxymethyl)-1-methyl-1H-benzimidazol-6-yloxy]phenyl]aminomethyl}-2-propyl-1-[2′-(1H-tetrazol-5-yl)biphenyl-4-ylmethyl]-1H-imidazole-5-carboxylic acid ethyl ester]: 22%.
